Test [1] has as its system human CD34+ cells (CML patients) depleted of Fbw7. In words: Apoptosis (annexin V staining) of Fbw7-depleted human CML CD34+ cells. In kind it is cell-based. The settings on record: human CD34+ cells after depletion of Fbw7; decrease of c-Myc activity. As to the method: Viable bone marrow mononuclear cells from two treatment-naïve patients in the chronic phase of CML were obtained from AllCells. To examine the role of FBW7 in the maintenance of LICs for human CML, bone marrow mononuclear cells were transfected with 300 nM FBW7 siRNAs (Stealth Select RNAi siRNA, Invitrogen) by electroporation with the use of an Amaxa Nucleofector II device (Lonza) according to the manufacture's instructions. The transfected cells were then stained with antibodies to human CD34 (8G12), CD3 (SK7), CD16 (3G8), CD19 (SJ25C1), CD20 (L27), CD14 (MφP9), and CD56 (NCAM16.2) (BD Biosciences). CD3, CD16, CD19, CD20, CD14, and CD56 were used as lineage markers. CD34^+Lin^− cells were purified by FACS and cocultured with OP-9 cells for 7 days. For assays of apoptosis, cells were collected after 7 days of culture, stained for cell surface markers, further incubated for 15 min with annexin V (BD Biosciences) and then analyzed by flow cytometry.

In test [2] the test system is human CD34+Lin- cells (CML patients) depleted of Fbw7. The test is described as follows: Colony forming unit assay of Fbw7-depleted human CML CD34+ cells. In kind it is cell-based. The settings on record: human CD34+ cells after depletion of Fbw7; decrease of c-Myc activity. As to the method: For the in vitro CFU experiments, mice received 5 intra-peritoneal (IP) injections of poly(I:C) at a dose of 20 ug/g, and LSK cells were purified 10 days post poly(I:C). LSK cells were purified and infected with Bcr-Abl-NGFR or Bcr-Abl-GFP retrovirus as described above. Bcr-Abl^+ lineage negative cells were sorted 72 hours after the first infection and 1000 cells were seeded into cytokine-supplemented methylcellulose medium (MethoCult 3434, Stem Cell Technologies). Colonies were counted 7 days after they were seeded and 4000 cells were re-plated and colonies were counted after another 7 days (14 days total). For human CFU assay, cells were collected after 7 days of culture, and 1×10^3 CD34^+Lin^− cells were transferred to Methocult medium (MethoCult GF H4435, StemCell Technologies). The number of colonies was counted 1 week after plating.
Viable bone marrow mononuclear cells from two treatment-naïve patients in the chronic phase of CML were obtained from AllCells. […] For assays of apoptosis, cells were collected after 7 days of culture, stained for cell surface markers, further incubated for 15 min with annexin V (BD Biosciences) and then analyzed by flow cytometry.

As to `CCc1ccc(/C=C2/SC(=S)NC2=O)cc1` [10058-F4], in test [1], the “apoptosis of Fbw7-depleted cells” value is on record as “rescued cells from apoptosis”. In addition, the “colony forming ability of Fbw7-depleted cells” value in test [2] is listed as “rescued”.
